# Laboratory results from US20170042991A1, “COMPOSITIONS COMPRISING GLUTEN PEPTIDES AND USES THEREOF” (ImmusanT, Inc., priority 2014, published 2017).
# Non-standard residues stand in square brackets, D forms with d. pGlu = O=C1CC[C@@H](C(=O)O)N1
# How the values were obtained:
# Assay type in all cases: cell-based, human
# PBMC [1] = assay: IFN-gamma ELISpot of PBMC, Day-6 after gluten challenge (Example 1); settings: DQ2.5+ CD
# gluten-reactive T cells = assay: Cytokine release assays taken together (IFNγ ELISpot, whole blood IFNγ and IP-10 release); settings: three cytokine release assays
# Method: Gluten peptide solutions for addition to whole blood were arranged according to standardized templates in sterile 96-well U-bottom plates (30 μL/well). Plates were sealed with adhesive ELISA plate cover slips before the plastic lid was replaced and being frozen at −80° C. Whole blood assay (WBA) “medium” (1% DMSO in 90% PBS and 9% normal saline), mitogen (PHA-L, Sigma-Aldrich #L2769; St Louis Mo.) 100 μg/ml in WBA medium, and CEF diluted to 10 μg/ml in PBS with a final concentration of 1% DMSO were frozen separately in sterile cryovials. 96-well plates and cryovials with frozen incubation solutions were shipped on dry ice to the clinical site where blood was collected and incubations performed. Solutions were thawed at room temperature for 10 min just before being added to whole blood. 96-well plates were thawed while being centrifuged at 300 g to avoid surface condensation. A multi-channel pipette was used to efficiently transfer 25 μL of peptide solutions from the original 96-well plate to corresponding wells in a fresh sterile 96-well U-bottom plate. Once incubation solutions had been added, 225 μL of whole blood was added to each well and the plate transferred to incubate for 24 h at 37° C. 5% CO2. […] Individual peptides were incubated at a final assay concentration of 5 μM. Final concentrations of individual peptides assessed in P3 was 0.05-50 μg/mL, and in P14 and P13 pools 0.025-25 μM. The P71 pool was tested at between 0.005-10 μg/mL, the highest tested concentration being the maximal possible not exceeding 0.1% DMSO. Peptide pools, mitogen, and medium only were assessed in triplicate wells, and on Day-6 individual peptides were assessed in duplicate wells. Incubations were terminated after 24 h, and 96-well plates centrifuged at 300 g for 10 min. A total of approximately 90 to 120 μL of plasma was removed from each well taking care to avoid red cell contamination, and transferred into corresponding wells of two further 96-well plates (one with 30 μL/well and the residual in the second plate). Plasmas were frozen at −80° C. and later shipped on dry ice to the central lab where IP-10 and IFNγ multiplex bead assays were performed according to manufacturer's instructions using 25 μL plasma per well (Milliplex® MAP Human Cytokine/Chemokine Magnetic Bead Panel #HCYTOMAG-60k-02; EMD Millipore Corp., Billerica, Mass. 01821) and analysed with the Luminex® MAGPIX® System xPONENT® software (Luminex Corporation, Austin Tex. 78727). Plasma cytokine levels for each assay condition were expressed as the mean analyte concentration of each of the three replicate incubations. Laboratory staff were unaware of the arrangement of peptide solutions incubated with during assay setup and plate counting. […]
# PBMC [2] = assay: Overnight IFNγ ELISpot assay with fresh PBMC (Example 2); settings: Day-6, n = 5
# Method: Ten HLA-DQ2.5+ adults with celiac disease diagnosed according to the National Institutes of Health Consensus Statement 2004 were enrolled (Table 7).^22 Subjects were required to have followed gluten-free diet for at least one year and without known gluten exposures within the previous two-months. […] Full inclusion and exclusion criteria are described in Table 8. Each of 3 consecutive days subjects consumed 3 cookies that were prepared from approximately 4.5 g wheat gluten, 3 g barley flour protein, and 1.5 g rye flour protein. Blood was collected before and six days after commencing the oral challenge. Blood was collected using a 21G butterfly needle directly into 10 mL lithium heparin tubes (BD Vacutainer® Heparin tube #367880) and QuantiFERON® NIL (0591-0205, Cellestis Ltd., Chadstone VIC 3148 Australia) and QuantiFERON® MITOGEN (0593-0201, Cellestis Ltd.).
# Overnight IFNγ ELISpot assays (Human IFN-γ ELISpotPRO kit, transparent, ALP; Mabtech AB, #3420-2APT-10) were performed using PBMC freshly separated from heparinized blood diluted 1:1 in PBS with 2% fetal bovine serum (Stemcell Technologies #07905; Vancouver, BC, V5Z 1B3, Canada) overlaid on density gradient medium (Ficoll-Paque™ PLUS; GE Healthcare Lice Sciences #:17-1440-02) in SepMate™-50 tubes (Stemcell Technologies #15460). PBMC (8 million/mL) were resuspended in serum-free medium with gentamicin and phenol red (X-VIVO™15; Lonza, Walkersville Mass. 21793). PBMC (0.4 million/50 μL/well) and incubated with 50 μL 80% X-vivol5, 0.2% DMSO and 20% PBS in three triplicate wells (“medium only”), or with 50 μL PHA-L 20 μg/ml or peptide at 2× final concentration in 80% X-vivol5, 0.2% DMSO and 20% PBS. Peptide solutions to be added to individual ELISpot wells were prepared in 96-well U-bottom plates (60 μL/well) that were then sealed with adhesive ELISA plate cover slips before replacing the plastic lid and being frozen at −80° C. 96-well plates containing peptide solutions were thawed at room temperature for 10 min while being centrifuged at 300 g immediately prior to being added to ELISpot wells. Peptide pools and mitogen were assessed in triplicate wells, and individual peptides were assessed in duplicate wells. X-VIVO™15 (50 μL) was incubated with 80% X-vivol5, 0.2% DMSO and 20% PBS (50 μL) in triplicate wells (“no PBMC” control). A Zeiss automated ELISpot counter was used to determine spot forming units (SFU) per well (Zellnet Inc., Fort Lee, N.J. 07024). Laboratory staff were unaware of the arrangement of peptide solutions in ELISpot wells during assay setup and plate counting.
# whole blood [3] = assay: 96-well plate whole blood multiplex cytokine release, IP-10 (MAGPIX bead assay, Example 2); settings: for IP-10 WB MAGPIX % max Mean: Day-6, n = 10; for Percent of maximal response, IP-10: after oral gluten challenge
# whole blood [4] = assay: 96-well plate whole blood multiplex cytokine release, IFNγ (MAGPIX bead assay, Example 2); settings: Day-6, n = 8
# [5] = Peptide 2 re-synthesised by Pepscan, 10 μg/mL (5.45 μM)
# [6] = individual peptides 5 μM, Peptide 2 = CSBio batch
substance,measurement,setting,value
"(pE)QPFPQPEQPFPWQP-amide ([pGlu]QPFPQPEQPFPWQP-NH2; SMILES NC(=O)CC[C@H](NC(=O)[C@H](Cc1c[nH]c2ccccc12)NC(=O)[C@@H]1CCCN1C(=O)[C@H](Cc1ccccc1)NC(=O)[C@@H]1CCCN1C(=O)[C@H](CCC(N)=O)NC(=O)[C@H](CCC(=O)O)NC(=O)[C@@H]1CCCN1C(=O)[C@H](CCC(N)=O)NC(=O)[C@@H]1CCCN1C(=O)[C@H](Cc1ccccc1)NC(=O)[C@@H]1CCCN1C(=O)[C@H](CCC(N)=O)NC(=O)[C@@H]1CCC(=O)N1)C(=O)N1CCC[C@H]1C(N)=O) [Peptide 2, CSBio and Pepscan batches tested separately]",Peptide-specific IFN-gamma ELISpot response,"PBMC [1]; Subject 1, 10 ug/ml",0 spot forming units per 0.8 million PBMC
same,Peptide-specific IFN-gamma ELISpot response,"PBMC [1]; Subject 2, 10 ug/ml",1 spot forming units per 0.8 million PBMC
same,Peptide-specific IFN-gamma ELISpot response,"PBMC [1]; Subject 3, 10 ug/ml",2 spot forming units per 0.8 million PBMC
same,Peptide-specific IFN-gamma ELISpot response,"PBMC [1]; Subject 4, 10 ug/ml",17 spot forming units per 0.8 million PBMC
same,Peptide-specific IFN-gamma ELISpot response,"PBMC [1]; Subject 5, 10 ug/ml",0 spot forming units per 0.8 million PBMC
same,Peptide-specific IFN-gamma ELISpot response,"PBMC [1]; Subject 6, 10 ug/ml",2 spot forming units per 0.8 million PBMC
same,Peptide-specific IFN-gamma ELISpot response,"PBMC [1]; Subject 7, 10 ug/ml",2 spot forming units per 0.8 million PBMC
same,Peptide-specific IFN-gamma ELISpot response,"PBMC [1]; Subject 8, 10 ug/ml",4 spot forming units per 0.8 million PBMC
same,Peptide-specific IFN-gamma ELISpot response,"PBMC [1]; Subject 9, 10 ug/ml",1 spot forming units per 0.8 million PBMC
same,Peptide-specific IFN-gamma ELISpot response,"PBMC [1]; Subject 10, 10 ug/ml",0 spot forming units per 0.8 million PBMC
same,activity as a fraction of that of Peptide 14,gluten-reactive T cells,one-half to one-fifth
same,IFNγ ELISpot % max Mean,PBMC [2]; [5],25 % max
same,IFNγ ELISpot % max Mean,PBMC [2]; [6],19 % max
same,IP-10 WB MAGPIX % max Mean,whole blood [3]; [5],49 % max
same,"Percent of maximal response, IP-10","whole blood [3]; Subject 3, Max. 9492 pg/mL",≥ 100 % of max
same,"Percent of maximal response, IP-10","whole blood [3]; Subject 4, Max. 9463 pg/mL",≥ 100 % of max
same,IP-10 WB MAGPIX % max Mean,whole blood [3]; [6],43 % max
same,IFNγ WB MAGPIX % max Mean,whole blood [4]; [5],27 % max
same,IFNγ WB MAGPIX % max Mean,whole blood [4]; [6],23 % max
